Assay results from patent US11383003B2, “Water soluble farnesol analogs and their use” (Kimberly-Clark Worldwide, Inc., priority 2012, dated 2022).

Key:
C. elegans glp4; sek1 = test: Toxicity: death rate of C. elegans glp4; sek1 fed on E. coli OP50; conditions: for Death rate (%): 2 mM, worms fed on E. coli OP50, 25° C.
Protocol: The toxicity of the selected compounds/products were tested using the C. elegans glp4; sek1 fed on E. coli OP50 (Table 5).
Stock cultures of C. albicans SC 5314 was subcultured into 3 ml of YPD broth and incubated at 30° C. Then the overnight culture in broth was spread onto YPD agar, and incubated at 30° C. The 24 h old lawn of SC5314 was used to feed worms for 2 h at 25° C. The control were worms fed on OP50.
The worms were washed off the YPD plates and washed twice with M9 buffer. The worms were resuspended in screening media, M9 buffer with 0.3% Tween 80. The worm suspension (50 μl) was dispensed into the wells of 96-well plates, 20-30 worms/well. Aliquots (50 μl) of compounds in screening media were added to wells, 5 wells each compound. The 96 well plates were incubated at 25° C. for up to 5 days. Live and dead worms were counted during incubation, and the death rates of worms were calculated.

C. albicans SC5314 [1] = test: Effect of quorum sensing molecules on lag phase/growth of C. albicans in YPD broth; type: cell-based, Candida albicans; conditions: 100 μM, 37° C., 6 h
[2] = cited from earlier work
C. albicans SC5314 [3] = test: Germ tube formation (GTF %) in vitro screening, GlcNAc-triggered differentiation assay; type: cell-based, Candida albicans
Protocol: Based on the results in FIG. 3, single cell suspensions of SC5314 was prepared as follows. Stock culture of C. albicans SC5314 was streaked onto YPD agar (YPDA) and incubated at 30° C. overnight. Single colonies were subcultured in YPD broth (YPDB) and incubated 30° C., 200 rpm overnight. Overnight culture in YPDB was subcultured in YPD broth again and incubated 30° C., 200 rpm 48 h. Cells were collected by centrifugation (4000 g 10 min) at 4° C., washed three times with sterile water, and then resuspended in sterile water a final concentration of 10^9 colony-forming unit/ml (cfu/ml). The suspension were stored at 4° C. at least 1 d, then subcultured into YPDB to a final concentration of 10^6 cfu/ml. After 48 h incubation, cell suspension was examined under the microscope for single cell percentage. When the single cell percentage exceeded 80%, cells were collected and washed three times with water, then resuspended in water to a final concentration of 10^9 cfu/ml, and stored at 4° C. for no more than a month.
Two approaches were taken to determine the percentage of cells with germ tubes formed (GTF %). One way was to count the total cells at the start of incubation, and count the ungerminated cells after incubation, then calculate the GTF % as (1—ungerminated cells/total cells at 0 h)*100. Another way was to store the samples at 15° C. for 20 h after incubation, then count the germinated cells and total cells after disaggregation, then calculated the GTF % as (germinated cells/total cells after storage)*100. […] Therefore, for practical purposes, the GTF % was determined by the first method, that is, GTF %=(1—ungerminated cells/total cells at 0 h)*100, for the in vitro screening discussed herein.
A screening medium, containing 11 mM imidazole buffer, 3 mM MgSO4, and 2.6 mM N-acetyl-D-glucosamine (GlcNAc) has been used to study the effect of farnesol analogs on the germ tube formation of C. albicans. Here, the germ tube formation of C. albicans in modified screening media was assessed with various concentrations of imidazole buffer (10 mM, 30 mM and 50 mM) and MgSO4 (0.5 mM, 1.5 mM and 3 mM). […] It took 2 h to 3 h for the GTF % to reach above 80%. For practical purposes, the screening medium, containing 11 mM imidazole buffer, 0.5 mM MgSO4, and 2.6 mM N-acetyl-D-glucosamine (GlcNAc) was adopted for in vitro screening the quorum sensing inhibitory effect of farnesol compounds.
The in vitro screening assay was based on the N-acetylglucosamine (GlcNAc)-triggered differentiation assay (Hornby et al., “Quorum sensing in the dimorphic fungus Candida albicans is mediated by farnesol;” Applied and Environmental Microbiology 67:2982-2992; 2001), which included 0.56 ml of 0.1 M imidazole buffer (pH 6.5), 0.15 ml of 0.1 M MgSO4, 0.13 ml of 0.1 M GlcNAc, and 4.16 ml of sterilized water. Bioassays of quorum sensing candidates were conducted by the addition of the chemical, as a solution in 100% methanol, to the bioassay media; the final concentration of methanol was no greater than 1%.

[4] = system: C. elegans glp4; sek1 infected with C. albicans SC5314; test: Death rate of C. elegans glp4; sek1 infected with C. albicans SC5314, 96 well plates; type: in vivo, Caenorhabditis elegans
Protocol: Caenorhabditis elegans glp4; sek1 was used as the model for […]. Breger et al. (Breger, J.; Fuchs, B. B.; Aperis, G.; Moy, T. I., Ausubel, F. M., Mylonakis, E.; “Antifungal chemical compounds identified using a C. elegans pathogenicity assay.” PLoS Pathogens 3: 168-178; 2007) reported that the glp-4 mutation rendered the strain incapable of producing progeny at 25° C., and the sek-1 mutation enhanced the sensitivity of the strain to various pathogens, thereby decreasing the time for screening assays. It was observed that no progenies was produced by the Caenorhabditis elegans glp4; sek1 strain after 3 d incubation at 25° C.
The synchronization of C. elegans was achieved by collecting the eggs and arresting the larvae at L1 stage. The commonly used bleach treatment was able to release the eggs from the adult worms. However, it was observed that the released eggs were not always able to hatch after treated with sodium hypochlorite (0.2, 0.3, 0.4, 0.5, 0.7 or 1%) for 3-5 min. A modified egg laying method was developed to synchronize worms to L1 stage. In brief, stock cultures of C. elegans glp4; sek1, maintained on Nematode Growth Media plates (NGM plates), were subcultured onto NGM plates with OP 50 and incubated at 15° C. for 6-9 days. Then a chunk (1 cm^2) of agar with gravid adults was subcultured again onto NGM plates with OP50 and incubated at 15° C. After incubation of 3-7 days, the worms were gently washed off with 3 ml of M 9 buffer on the rotating platform (100 rpm). The plate was tilted on its lid to allow the liquid and worms drain to one side of the plate. The liquid and worms were aspirated off. The plate was washed again with M9 buffer three more times to remove OP50 as much as possible. After washing, the plate was incubated at 25° C. overnight to let the eggs hatch overnight. Since there was no OP50, the larvae were arrested at the L1 stage. The live C. elegans glp4; sek1 was quite curvy; whereas the dead C. elegans glp4; sek1 tended to be straight, and in most cases the dead worms with the hyphae of C. albicans pieced through the body. The curvy shape and movement after shaking were used as the criteria for live.
The In vitro screening assay, based on the method of Tampakakis et al (Tampakakis, E.; Okoli, I.; Mylonakis, E.; “A C. elegans-based, whole animal, in vivo screen for the identification of antifungal compounds.” Nature Protocols 3:1925-1931; 2008), is described as follows:
L1 worms, which were prepared by the modified egg-laying method, were collected by centrifugation at 675 g for 30 s at room temperature, and the supernatant was removed. Worms were resuspended in M 9 buffer and inoculated on NGM agar plates with OP50, ˜1000 worms per plate. After 2-3 days incubation at 25° C., the worms were washed off with M 9 buffer for the […] assay.
The control were worms fed on OP50.

[5] = 0.4 mM to 3 mM (the tested four concentrations)
[6] = 0.4 mM, 4 days, 25° C., two replicates
[7] = 0.4 mM, 5 days, 25° C., two replicates
[8] = 1.0 mM, 4 days, 25° C., two replicates
[9] = 1.0 mM, 5 days, 25° C., two replicates
[10] = 2.0 mM, 4 days, 25° C., two replicates (* three)
[11] = 2.0 mM, 5 days, 25° C., two replicates (* three)
[12] = 3.0 mM, 4 days, 25° C., two replicates
[13] = 3.0 mM, 5 days, 25° C., two replicates

Compound | Death rate (%) (C. elegans glp4; sek1) | effect on the growth of C. albicans SC5314 (in words) (C. albicans SC5314 [1]) | GTF % (mean ± SEM, n = 2) (C. albicans SC5314 [3]; 100 μM, * one replicate) [%] | GTF % (mean ± SEM, n = 2) (C. albicans SC5314 [3]; 200 μM) [%] | effect on death rate of infected C. elegans (in words) [4, 5] | % change in the death rate compared to the control [4, 6] [%] | % change in the death rate compared to the control [4, 7] [%] | % change in the death rate compared to the control [4, 8] [%] | % change in the death rate compared to the control [4, 9] [%] | % change in the death rate compared to the control [4, 10] [%] | % change in the death rate compared to the control [4, 11] [%] | % change in the death rate compared to the control [4, 12] [%] | % change in the death rate compared to the control [4, 13] [%] | further results
CC(C)=CCC/C(C)=C/CC/C(C)=C/CO [E,E-farnesol, reference compound] | 7 | little effect on the growth | 44.0 ± 3.1 | 18.4 ± 2.9 |  |  |  |  |  |  |  |  |  | toxicity to C. elegans fed on E. coli OP50 (in words) (C. elegans glp4; sek1; in vivo): slightly higher than the control; solubility in water (in words) [2]: insoluble in water; % change in the death rate compared to the control ([4]; 0.4 mM, day 1, initial screening): −4%; % change in the death rate compared to the control ([4]; 0.4 mM, day 4, initial screening): −16%; % change in the death rate compared to the control ([4]; 0.4 mM, day 5, initial screening): −19%; effect on death rate of infected C. elegans (in words) ([4]; 0.4 mM, initial screening): reduced the death rate slightly; % change in the death rate compared to the control ([4]; 1 mM, day 1, initial screening): −12%; % change in the death rate compared to the control ([4]; 1 mM, day 4, initial screening): 14%; % change in the death rate compared to the control ([4]; 1 mM, day 5, initial screening): 10%; % change in the death rate compared to the control ([4]; 2 mM, day 1, initial screening): −8%; % change in the death rate compared to the control ([4]; 2 mM, day 4, initial screening): 19%; % change in the death rate compared to the control ([4]; 2 mM, day 5, initial screening): 8%; % change in the death rate compared to the control ([4]; 3 mM, day 1, initial screening): −21%; % change in the death rate compared to the control ([4]; 3 mM, day 4, initial screening): 23%; % change in the death rate compared to the control ([4]; 3 mM, day 5, initial screening): 12%; effect on death rate of infected C. elegans (in words) ([4]; higher concentration (above 0.4 mM), initial screening): resulted in higher death rate of the worm
CC(C)=CCC/C(C)=C/CC/C(C)=C/COC(=O)CCC(=O)OCCO [#4 synthesized analog] | 2 |  | 59.2 ± 4.8 | 31.1 ± 8.2 | did not have significant effect on the death of the worms | 8 ± 8 | 7 ± 1 | −3 ± 3 | −1 ± 4 | 4 ± 8 | 8 ± 11 | 7 ± 4 | 10 ± 5 | 
CC(C)=CCC/C(C)=C/CC/C(C)=C/COC(=O)CCC(=O)OCCCO [#3 synthesized analog] | 6 |  | 66.9 ± 1.5 | 32.9 ± 1.0 | did not have significant effect on the death of the worms | −6 ± 7 | 10 ± 3 | 1 ± 6 | 3 ± 8 | −12 ± 9 | 9 ± 10 | −2 ± 2 | 7 ± 1 | 
CC(C)=CCC/C(C)=C/CC/C(C)=C/COCCCCO [#5 synthesized analog] | 4 |  | 73.8 ± 4.8 | 53.6 ± 3.0 | did not have significant effect on the death of the worms | −3 ± 6 | −6 ± 3 | 2 ± 3 | 9 ± 1 | −8 ± 1 | 2 ± 2 | −4 ± 4 | 4 ± 1 | 
OCCc1ccc(O)cc1 [tyrosol] |  | little effect on the growth |  |  |  |  |  |  |  |  |  |  |  | 
